Patent US6472348B1, “Pyridone derivatives and herbicides” (Kumiai Chemical Industry Co., Ltd., priority 1996, dated 2002)

Assays:
barnyardgrass (Ec) [1] = experiment: Test Example 3: herbicidal effects by upland field foliage treatment; type: in vivo; set-up: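 grade of growth control; 5 = at least 90%; 4 = 70 to 90%; 3 = 50 to 70%; 2 = 30 to 50%; 1 = 10 to 30%; 0 = under 10%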; conditions: 100 g active ingredient per 10 ares, evaluated 14th day after treatment
Summary of the method: (§1)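 Weeds were sown in sand-filled pots (surface area: 120 cm^2), covered with soil and grown in a greenhouse for 2 weeks before foliar treatment. Plants then stayed in the greenhouse, and herbicidal effect was scored against graded standards on the 14th day after treatment.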

Diaitaria ciliaris (Di) = experiment: as above; type: in vivo; set-up: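 grade of growth control; 5 = at least 90%; 4 = 70 to 90%; 3 = 50 to 70%; 2 = 30 to 50%; 1 = 10 to 30%; 0 = under 10%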; conditions: 100 g active ingredient per 10 ares, evaluated 14th day after treatment
Summary of the method: as §1

rice flatsedge (Ci) [2] = experiment: as above; type: in vivo; set-up: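 grade of growth control; 5 = at least 90%; 4 = 70 to 90%; 3 = 50 to 70%; 2 = 30 to 50%; 1 = 10 to 30%; 0 = under 10%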; conditions: 100 g active ingredient per 10 ares, evaluated 14th day after treatment
Summary of the method: as §1

[3] = system: common lambsquarters (Ch); experiment: as above; type: in vivo; set-up: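 grade of growth control; 5 = at least 90%; 4 = 70 to 90%; 3 = 50 to 70%; 2 = 30 to 50%; 1 = 10 to 30%; 0 = under 10%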; conditions: 100 g active ingredient per 10 ares, evaluated 14th day after treatment
Summary of the method: as §1

slender amaranth (Am) [4] = experiment: as above; type: in vivo; set-up: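 grade of growth control; 5 = at least 90%; 4 = 70 to 90%; 3 = 50 to 70%; 2 = 30 to 50%; 1 = 10 to 30%; 0 = under 10%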; conditions: 100 g active ingredient per 10 ares, evaluated 14th day after treatment
Summary of the method: as §1

pale smartweed (Po) [5] = experiment: as above; type: in vivo; set-up: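 grade of growth control; 5 = at least 90%; 4 = 70 to 90%; 3 = 50 to 70%; 2 = 30 to 50%; 1 = 10 to 30%; 0 = under 10%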; conditions: 100 g active ingredient per 10 ares, evaluated 14th day after treatment
Summary of the method: as §1

barnyardgrass (Ec) [6] = experiment: Test Example 2: herbicidal effects by upland field soil treatment; type: in vivo; conditions: 100 g of the active ingredient per 10 ares, evaluated on the 21st day after application;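 further: grade of growth control; 5 = at least 90%; 4 = 70 to 90%; 3 = 50 to 70%; 2 = 30 to 50%; 1 = 10 to 30%; 0 = under 10%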
Source text: (§2) (Test on Herbicidal Effects by Upland Field Soil Treatment)

Digitaria ciliaris (Di) = experiment: as above; type: in vivo; conditions: 100 g of the active ingredient per 10 ares, evaluated on the 21st day after application;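 further: grade of growth control; 5 = at least 90%; 4 = 70 to 90%; 3 = 50 to 70%; 2 = 30 to 50%; 1 = 10 to 30%; 0 = under 10%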
Source text: as §2

rice flatsedge (Ci) [7] = experiment: as above; type: in vivo; conditions: 100 g of the active ingredient per 10 ares, evaluated on the 21st day after application
Source text: as §2

[8] = system: common lambsquarters (Ch); experiment: as above; type: in vivo; conditions: 100 g of the active ingredient per 10 ares, evaluated on the 21st day after application
Source text: as §2

slender amaranth (Am) [9] = experiment: as above; type: in vivo; conditions: 100 g of the active ingredient per 10 ares, evaluated on the 21st day after application
Source text: as §2

pale smartweed (Po) [10] = experiment: as above; type: in vivo; conditions: 100 g of the active ingredient per 10 ares, evaluated on the 21st day after application
Source text: as §2

monochoria (Mo) = experiment: Test Example 1: herbicidal effects by paddy field soil treatment; type: in vivo; conditions: 100 g of the active ingredient per 10 ares, 21st day after the application, index 0-5 of Table 47;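 further: grade of growth control; 5 = at least 90%; 4 = 70 to 90%; 3 = 50 to 70%; 2 = 30 to 50%; 1 = 10 to 30%; 0 = under 10%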
Summary of the method: (§3)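 Herbicidal effect was scored against a graded standard 21 days after treatment. Seeds were sown in puddled, leveled paddy soil flooded to 3 cm depth, and the active ingredient was applied at 100 g per 10 ares before greenhouse culture.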

barnyardgrass (Ec) [11] = experiment: as above; type: in vivo; conditions: 100 g of the active ingredient per 10 ares, 21st day after the application, index 0-5 of Table 47
Summary of the method: as §3

bulrush (Sc) = experiment: as above; type: in vivo; conditions: 100 g of the active ingredient per 10 ares, 21st day after the application, index 0-5 of Table 47;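 further: grade of growth control; 5 = at least 90%; 4 = 70 to 90%; 3 = 50 to 70%; 2 = 30 to 50%; 1 = 10 to 30%; 0 = under 10%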
Summary of the method: as §3

In the case of `Cc1cc2c(Cl)cc(F)c(-c3ccc(C(F)(F)F)n(C)c3=O)c2o1` [Compound No. 5-1, 3-(4-chloro-6-fluoro-2-methylbenzofuran-7-yl)-1-methyl-6-trifluoromethyl-2 (1H)-pyridone], the “Herbicidal effects Ec” value (barnyardgrass (Ec) [1]) is reported as 5, the “Herbicidal effects Di” value (Diaitaria ciliaris (Di)) is reported as 5 and the “Herbicidal effects Ci” value (rice flatsedge (Ci) [2]) is reported as 5. The “Herbicidal effects Ch” value [3] was 5, the “Herbicidal effects Am” value (slender amaranth (Am) [4]) was 5 and the “Herbicidal effects Po” value (pale smartweed (Po) [5]) was 5. The “Herbicidal effects Ec” value (barnyardgrass (Ec) [6]) was 5, the “Herbicidal effects Di” value (Digitaria ciliaris (Di)) was 5 and the “Herbicidal effects Ci” value (rice flatsedge (Ci) [7]) was 5. For the same molecule, the “Herbicidal effects Ch” value [8] was 5, the “Herbicidal effects Am” value (slender amaranth (Am) [9]) was 5 and the “Herbicidal effects Po” value (pale smartweed (Po) [10]) was 5. The “Herbicidal effects Mo” value (monochoria (Mo)) was 5, the “Herbicidal effects Ec” value (barnyardgrass (Ec) [11]) was 5 and the “Herbicidal effects Sc” value (bulrush (Sc)) was 5. For the same molecule, the melting point was 138 to 140 °C.
With `CC(C)Oc1cc(-c2cn(C)c(C(F)(F)F)cc2=O)c(F)cc1Cl` [Compound No. 6-7, 5-(4-chloro-2-fluoro-5-isopropoxyphenyl)-1-methyl-2-trifluoromethyl-4(1H)-pyridone] the “Herbicidal effects Ec” value (barnyardgrass (Ec) [1]) was 5, the “Herbicidal effects Di” value (Diaitaria ciliaris (Di)) was 5 and the “Herbicidal effects Ci” value (rice flatsedge (Ci) [2]) was 5. For the same molecule, the “Herbicidal effects Ch” value [3] was 5, the “Herbicidal effects Am” value (slender amaranth (Am) [4]) was 5 and the “Herbicidal effects Po” value (pale smartweed (Po) [5]) was 5. The “Herbicidal effects Ec” value (barnyardgrass (Ec) [6]) was 5, the “Herbicidal effects Di” value (Digitaria ciliaris (Di)) was 5 and the “Herbicidal effects Ci” value (rice flatsedge (Ci) [7]) was 5. The “Herbicidal effects Ch” value [8] was 5, the “Herbicidal effects Am” value (slender amaranth (Am) [9]) was 5 and the “Herbicidal effects Po” value (pale smartweed (Po) [10]) was 5. The “Herbicidal effects Mo” value (monochoria (Mo)) was 5, the “Herbicidal effects Ec” value (barnyardgrass (Ec) [11]) was 5 and the “Herbicidal effects Sc” value (bulrush (Sc)) was 5. For the same molecule, the melting point was 150 to 151 °C.
For `Cn1cc(-c2cc(OC3CCCC3)c(Cl)cc2F)c(=O)cc1C(F)(F)F` [Compound No. 6-14, 5-(4-chloro-2-fluoro-5-cyclopentyloxyphenyl)-1-methyl-2-trifluoromethyl-4(1H)-pyridone], the “Herbicidal effects Ec” value (barnyardgrass (Ec) [1]) was 5, the “Herbicidal effects Di” value (Diaitaria ciliaris (Di)) was 5 and the “Herbicidal effects Ci” value (rice flatsedge (Ci) [2]) was 5. The “Herbicidal effects Ch” value [3] was 5, the “Herbicidal effects Am” value (slender amaranth (Am) [4]) was 5 and the “Herbicidal effects Po” value (pale smartweed (Po) [5]) was 5. For the same molecule, the “Herbicidal effects Ec” value (barnyardgrass (Ec) [6]) was 5, the “Herbicidal effects Di” value (Digitaria ciliaris (Di)) was 5 and the “Herbicidal effects Ci” value (rice flatsedge (Ci) [7]) was 5. The “Herbicidal effects Ch” value [8] was 5, the “Herbicidal effects Am” value (slender amaranth (Am) [9]) was 5 and the “Herbicidal effects Po” value (pale smartweed (Po) [10]) was 5. The “Herbicidal effects Mo” value (monochoria (Mo)) was 5, the “Herbicidal effects Ec” value (barnyardgrass (Ec) [11]) was 5 and the “Herbicidal effects Sc” value (bulrush (Sc)) was 5. For the same molecule, the melting point was 152 to 154 °C.
